Reference: PubChem BioAssay (NCI)
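Assay format: 96-well plates, 48-hour exposure. TGI denotes the concentration required for complete inhibition of growth.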 Where a SMILES comes first, the peptide text is derived from it. The star is where a group is joined. Boc = CC(C)(C)OC(=O)*; OtBu = CC(C)(C)O*

Key:
Assay in all cases: NCI tumour cell line growth inhibition, 48 h
[1] = test system: 786-0 renal
[2] = test system: NCI-H460 lung
[3] = test system: K-562 leukemia
[4] = test system: MDA-N
[5] = test system: SNB-75 CNS
[6] = test system: LOX IMVI melanoma
[7] = test system: HS 578T breast
[8] = test system: CAKI-1 renal
[9] = test system: SK-MEL-2 melanoma
[10] = test system: HT29 colon
[11] = test system: HCT-116 colon
[12] = test system: SK-MEL-28 melanoma
[13] = test system: DU-145 prostate
[14] = test system: OVCAR-4 ovarian
[15] = test system: MDA-MB-231 breast
[16] = test system: PC-3 prostate
[17] = test system: T-47D breast
[18] = test system: HOP-92 NSCLC
[19] = test system: A498 renal
[20] = test system: MDA-MB-435
[21] = test system: EKVX NSCLC
[22] = test system: KM12 colon
[23] = test system: HOP-62 NSCLC
[24] = test system: OVCAR-3 ovarian
[25] = test system: ACHN renal
[26] = test system: NCI-H522 lung
[27] = test system: U251 CNS
[28] = test system: BT-549 breast
[29] = test system: OVCAR-8 ovarian
[30] = test system: NCI-H226 lung
[31] = test system: SN12C renal
[32] = test system: SF-539 CNS
[33] = test system: UO-31 renal
[34] = test system: UACC-257 melanoma
[35] = test system: RPMI-8226 leukemia
[36] = test system: A549 NSCLC
[37] = test system: SW-620 colon
[38] = test system: COLO 205 colon
[39] = test system: SF-295 CNS
[40] = test system: HCT-15 colon
[41] = test system: MCF7 breast
[42] = test system: SK-OV-3 ovarian
[43] = test system: SNB-19 CNS
[44] = test system: MALME-3M melanoma
[45] = test system: OVCAR-5 ovarian
[46] = test system: RXF 393 renal
[47] = test system: NCI/ADR-RES ovarian
[48] = test system: NCI-H23 lung
[49] = test system: IGROV1 ovarian
[50] = test system: SF-268 CNS
[51] = test system: SK-MEL-5 melanoma
[52] = test system: CCRF-CEM leukemia
[53] = test system: M14 melanoma
[54] = test system: TK-10 renal
[55] = test system: MOLT-4 leukemia
[56] = test system: UACC-62 melanoma
[57] = test system: HL-60(TB) leukemia

SMILES: CC(C)(C)OC(=O)CC(NC(=O)OC(C)(C)C)C(=O)NC(Cc1ccccc1)C(N)=O (stereo not drawn) (Boc-Asp(OtBu)-Phe-NH2; configuration not given here)
- TGI [1]: > 100 µM
- TGI [2]: > 100 µM
- TGI [3]: > 100 µM
- TGI [4]: > 100 µM
- TGI [5]: > 100 µM
- TGI [6]: > 100 µM
- TGI [7]: > 100 µM
- TGI [8]: > 100 µM
- TGI [9]: > 100 µM
- TGI [10]: > 100 µM
- TGI [11]: > 100 µM
- TGI [12]: > 100 µM
- TGI [13]: > 100 µM
- TGI [14]: > 100 µM
- TGI [15]: > 100 µM
- TGI [16]: > 100 µM
- TGI [17]: > 100 µM
- TGI [18]: > 100 µM
- TGI [19]: > 100 µM
- TGI [20]: > 100 µM
- TGI [21]: > 100 µM
- TGI [22]: > 100 µM
- TGI [23]: > 100 µM
- TGI [24]: > 100 µM
- TGI [25]: > 100 µM
- TGI [26]: > 100 µM
- TGI [27]: > 100 µM
- TGI [28]: > 100 µM
- TGI [29]: > 100 µM
- TGI [30]: > 100 µM
- TGI [31]: > 100 µM
- TGI [32]: > 100 µM
- TGI [33]: > 100 µM
- TGI [34]: > 100 µM
- TGI [35]: > 100 µM
- TGI [36]: > 100 µM
- TGI [37]: > 100 µM
- TGI [38]: > 100 µM
- TGI [39]: > 100 µM
- TGI [40]: > 100 µM
- TGI [41]: > 100 µM
- TGI [42]: > 100 µM
- TGI [43]: > 100 µM
- TGI [44]: > 100 µM
- TGI [45]: > 100 µM
- TGI [46]: > 100 µM
- TGI [47]: > 100 µM
- TGI [48]: > 100 µM
- TGI [49]: > 100 µM
- TGI [50]: > 100 µM
- TGI [51]: > 100 µM
- TGI [52]: > 100 µM
- TGI [53]: > 100 µM
- TGI [54]: > 100 µM

SMILES: CN1CN(c2ccccc2)C2(CCN(CCCN(C)c3ccc(F)cc3)CC2)C1=O
- TGI [1]: 42.2 µM
- TGI [2]: 32.9 µM
- TGI [3]: 30.1 µM
- TGI [4]: 30.7 µM
- TGI [5]: 40 µM
- TGI [6]: 31 µM
- TGI [7]: 42.8 µM
- TGI [8]: 86.4 µM
- TGI [9]: 33.5 µM
- TGI [10]: 22.6 µM
- TGI [11]: 25.4 µM
- TGI [12]: 37.9 µM
- TGI [13]: 76.1 µM
- TGI [15]: 28.3 µM
- TGI [16]: 63.8 µM
- TGI [17]: 41.7 µM
- TGI [19]: 72.6 µM
- TGI [20]: 37.4 µM
- TGI [22]: 31.3 µM
- TGI [23]: 32.1 µM
- TGI [24]: 31.7 µM
- TGI [25]: 53.2 µM
- TGI [26]: 27.4 µM
- TGI [27]: 33.3 µM
- TGI [28]: 31.1 µM
- TGI [29]: 45.2 µM
- TGI [30]: 45.1 µM
- TGI [55]: 54.7 µM
- TGI [31]: 66.4 µM
- TGI [32]: 39.7 µM
- TGI [33]: 40.3 µM
- TGI [34]: 33.6 µM
- TGI [35]: 80.4 µM
- TGI [36]: 65.9 µM
- TGI [37]: 36.2 µM
- TGI [38]: 24.1 µM
- TGI [39]: 28.3 µM
- TGI [40]: 50.1 µM
- TGI [41]: 29.2 µM
- TGI [42]: 42.3 µM
- TGI [43]: 56.5 µM
- TGI [44]: 38.1 µM
- TGI [45]: 41.8 µM
- TGI [46]: 46.2 µM
- TGI [47]: 51.3 µM
- TGI [56]: 36.5 µM
- TGI [48]: 44.1 µM
- TGI [49]: 34.6 µM
- TGI [57]: 26.2 µM
- TGI [50]: 54.6 µM
- TGI [51]: 29.8 µM
- TGI [52]: 62.1 µM
- TGI [53]: 30.7 µM
- TGI [54]: 44.9 µM
